Drawing on the supplement of paper PMC10307832, this text covers relative viability for one cell line.

Assay in all cases: relative viability (nuclei count vs DMSO), 5 days (fraction); higher = more cells survive
Compound in the experiment “XMD13-2 + Lapatinib”: C1CC1C(=O)NC2=NNC3=C2C=CC(=C3)C4=CC(=CC=C4)C(=O)NC5CC5 [XMD13-2] + CS(=O)(=O)CCNCc1ccc(-c2ccc3ncnc(Nc4ccc(OCc5cccc(F)c5)c(Cl)c4)c3c2)o1 [Lapatinib] (partner 2 µM)
The procedure, abridged: (§1)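 Relative viability divides the nuclei count in treated wells by that in vehicle wells. Lung cancer cell lines were seeded in 1536-well plates, dosed by pin tool the next day, and fixed and stained after 5 days in one step with final 0.05% Triton X-100, 1% formaldehyde and 1 ug/ml Hoechst. Dosing was a single drug or a fixed anchor-drug dose plus five library-drug doses (not always all listed) in √10 steps, and values are medians of duplicate plates imaged at 4×.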

Compound in the experiment “ALW-II-49-7 + Trametinib”: Cc1ccc(C(=O)Nc2cccc(C(F)(F)F)c2)cc1Nc1cncc(C(N)=O)c1 [ALW-II-49-7] + CC(=O)Nc1cccc(-n2c(=O)n(C3CC3)c(=O)c3c(Nc4ccc(I)cc4F)n(C)c(=O)c(C)c32)c1 [Trametinib] (partner 0.02 µM)
The procedure, abridged: as §1

Compound in the experiment “XMD13-2 + Bortezomib”: C1CC1C(=O)NC2=NNC3=C2C=CC(=C3)C4=CC(=CC=C4)C(=O)NC5CC5 [XMD13-2] + CC(C)C[C@H](NC(=O)[C@H](Cc1ccccc1)NC(=O)c1cnccn1)B(O)O [Bortezomib] (partner 0.002 µM)
The method in brief: as §1

Compound in the experiment “Dasatinib + Alpelisib”: Cc1nc(Nc2ncc(C(=O)Nc3c(C)cccc3Cl)s2)cc(N2CCN(CCO)CC2)n1 [Dasatinib] + Cc1nc(NC(=O)N2CCC[C@H]2C(N)=O)sc1-c1ccnc(C(C)(C)C(F)(F)F)c1 [Alpelisib] (partner 2 µM)
The method in brief:
as §1

In the case of UMC-11, the relative viability amounted to 1.18 in the experiment with XMD13-2 + Lapatinib (first compound 0.05 µM); 0.856 in the experiment with XMD13-2 + Lapatinib (first compound 0.1581 µM); 1.01 with XMD13-2 + Lapatinib (first compound 0.5 µM); 0.901 with XMD13-2 + Lapatinib (first compound 1.581 µM); 1.08 in the experiment with XMD13-2 + Lapatinib (first compound 5 µM); 0.791 in the experiment with ALW-II-49-7 + Trametinib (first compound 0.08 µM). The relative viability stood at 0.69 in the experiment with ALW-II-49-7 + Trametinib (first compound 0.253 µM); 0.896 with ALW-II-49-7 + Trametinib (first compound 0.8 µM); 0.821 in the experiment with ALW-II-49-7 + Trametinib (first compound 2.53 µM); 0.599 in the experiment with ALW-II-49-7 + Trametinib (first compound 8 µM); 0.737 with XMD13-2 + Bortezomib (first compound 0.05 µM); 0.896 with XMD13-2 + Bortezomib (first compound 0.1581 µM). For the same cell line, the relative viability stood at 0.825 with XMD13-2 + Bortezomib (first compound 0.5 µM); 0.587 with XMD13-2 + Bortezomib (first compound 1.581 µM); 0.981 with XMD13-2 + Bortezomib (first compound 5 µM); 0.988 with Dasatinib + Alpelisib (first compound 0.005 µM); 0.768 with Dasatinib + Alpelisib (first compound 0.01581 µM); 0.752 in the experiment with Dasatinib + Alpelisib (first compound 0.05 µM). In addition, the relative viability turned out to be 0.347 with Dasatinib + Alpelisib (first compound 0.1581 µM) and 0.264 with Dasatinib + Alpelisib (first compound 0.5 µM).
